Assay results reported in patent EP1310250A1, “Use of the compound 2-methoxyphenyl-1-methyl-5P-methylbenzoyl-pyrrol-2-acetamido acetate for the production of an antiinflammatory drug with prevention of gastric hypersecretion and renal impairment” (MEDOSAN Ricerca S.r.l., priority 1997, dated 1999).
Where “and” joins values, the source holds several entries; their conditions need not be identical. Identical values can stand only once. Marks after values point to notes of the source that are not given here.

How the values were obtained:
rat gastric mucosa = details: male, Wistar, in vivo, po, 4 days
Protocol: The animals entered in the trial, randomized and divided into groups of 6 rats each, were fasted for 16 h prior to treatment, with access to water ad libitum. They were re-fed 1 h after drug administration. The compound 2-methoxyphenyl-1-methyl-5p-methylbenzoyl-pyrrol-2-acetamido acetate and the other reference NSAIDs, suspended in 1% carboxymethylcellulose (CMC) solution, were orally administered by gastric gavage in a volume of 6ml/kg for four consecutive days. Controls received the vehicle in the same way as the treated animals. 4 h after the last administration the animals were killed by ether overdose; the stomachs were removed, rinsed with 10 ml of saline and immersed in 1% formalin. They were later opened along the greater curvature and the mucosa examined for lesions.
The seriousness of the lesion was quantified according to a scale graduated from 1 to 3 according to the size of the lesions: 1= ulcer < 1mm; 2= ulcer 1-2mm; 3= ulcer > 2mm. The total sum was divided by 10 to obtain the "erosion index". The gastric lesions were evaluated by two independent investigators under blind conditions according to Main & Whittle method (BJ Pharmac 1975:53; p. 217-224).
Since the average daily dose in man (for the anti-inflammatory activity) is 600 mg, the comparative efficacious dose in the rat is in the ratio of 12:1. More precisely, comparative evaluation with the other NSAID compounds was calculated as follows: 600 mg/die: 50 mg/kg = daily dose of reference NSAID in man: X [formula] where X represents the daily dose of the reference NSAID in rat. This criterion keeps into account the "real" activity ratio in man. In this work the "ratio to rat dosage" has also been included which keeps into account ratios homogeneous to the same animal species. To evaluate the "ratio to rat dosage" the ID50 has been determined using the carrageenin-induced oedema as inflammatory test.
In order to exacerbate possible side effects on the stomach the dosage of amtolmetin guacyl was quadruplicated.

[1] = system: carrageenin-induced paw oedema; experiment: Determination of ID50, carrageenin-induced paw oedema; format: in vivo, rat; details: five times the oral ID50 for oedema inhibition, 2 h after carrageenin
Protocol: ID50, relative to the products under examination (considered in table 1), has been evaluated using the anti-inflammatory response to carrageenin-induced paw oedema (according to Wong et al, J Pharmacol Exp, 1973:1855; pages 127-138). The products, suspended in 1% CMC, were administered orally in a total volume of 5 ml/rat. 1 h later, 0.1 ml of 1% carrageenin sterile solution was injected into the hind subplantar aponeurosis. Volume of the paw was measured immediately prior to injection of the phlogogen and 2 h thereafter, by means of a plethysmograph. The percentage of inhibition of oedema was calculated as follows: 1 - ΔV treated/ΔV control x 100 [formula] where ΔV = final V - initial V.

diuresis = experiment: Diuresis in normally hydrated rats; format: in vivo; details: normally hydrated rats treated orally for 8 consecutive days (figure 13)
Protocol: In the course of various studies conducted on animals to show the lack of renal impairment, a test was carried out to compare the diuresis in normally hydrated rats treated orally for 8 consecutive days with amtolmeting guacyl and diclofenac, which is also a NSAID.

[2] = system: post-traumatic arthralgia; experiment: Clinical trials: analgesic properties in post-traumatic arthralgia; format: in vivo, man; details: Amtolmetin guacyl 600mgx2-daily, Diclofenac 50mgx2-daily, 15 patients each
From the text: The same can be said in the treatment of post-traumatic arthralgia.

gastric mucosa = experiment: Histological evaluation of the gastric mucosa by an independent laboratory; details: single animals; oral gavage: amtolmetin guacyl 50 mg/kg, diclofenac 7.5 mg/kg, tolmetin 66.6 mg/kg
Protocol: In order to obtain a histological evaluation of the results obtained in our laboratories, an independent laboratory was provided with identical samples of the material evaluated by us, under totally blind conditions.
Controls received the vehicle only, also by oral gavage. 4 h after the final administration the animals were killed by ether overdose and the stomachs removed, rinsed in saline and immersed in formalin 4%.

Adjuvant arthritis = experiment: Adjuvant arthritis: joint inflammation and patellar bone erosion; format: in vivo, rats; details: patellar bone mass; MED 15 25, 50, 100mg/kg, piroxicam 3mg/kg
Protocol: The drugs were administered daily by oral gavage for 4 days (day 0-3); piroxicam and MED 15 were dissolved in 5% Gum arabic + 0.01% Tween 80, and administered in a volume of 0.5ml. Piroxicam was administered as 3mg/kg and MED 15 was administered as 25, 50 and 100mg/kg doses. Table 8 bis illustrating dosage regimes. L=left stifle joint, R=Right stifle joint.
Under halothane anaesthesia, rats received 200µg of heat-killed finely ground Mycobactyerium tubercolosis in 25µl (80mg/10ml sterile saline) injected intra-articulary into the left stifle joint. The contralateral joint received 25µl 0.9% sterile saline. Control animals received 25µl of 0.9% sterile saline in both knees. SGE 50µl microsyringes with a volume lock calibrated at 25µl were used with 30G stainless steel needles. Solutions were prepared sterile, and aseptic technique was used throughout, with sterilisation of syringes between groups.
The rats were killed by carbon dioxide suffocation. The body weight was noted and the skin overlying the stifle joints was divided and the joint diameters assessed in mm using Mitutoyo vernier callipers (530-312, 0.02mm).
The patellae were dissected, weighed (Sartorius, 0.01mg) and then immersed in 1ml digestion buffer (see below) to remove soft tissue.
Digestive buffer was prepared fresh to the following formula; disodium hydrogen orthophosphate 20mM, EDTA 1mM and diothiothreitol at 2mM. […]

[3] = system: isolated, perfused, immature rat stomach; experiment: Antisecretive activity in vitro, isolated perfused immature rat stomach; details: agonist Histamine 10^-4 M, antagonist 10^-4 M
From the text: Male Wistar rats, 250±10 g b.w. (Charles River, Calco, Como, Italy), quarantined for five days prior to the beginning of the trial and divided into groups of 3 animals per cage, were used for determination of gastric lesions and of ID50 determination. Immature male Wistar rats, 30-45 g b.w. (Harlan Nossan, Milano) were used for the determination of the antisecretory effect on isolated rat stomach. The guinea-pigs used were the Dunkin Hartley guinea-pigs (Harlan Nossan, Milano, Italy).
At the beginning, the isolated, perfused, immature rat stomach, treated externally with the study product, was used. We preferred to use the isolated stomach in toto rather than strips (B.R. No. 18, 19 and 20) in order not to exclude a section of the stomach (the antrum), unimportant for acid secretion but very important for the secretion of bicarbonates and bioactive peptides (b.r. No. 21, 22). The results were encouraging, since amtolmetin guacyl inhibited acid production stimulated by the three classic agonists (histamine, acetilcholine and gastrin) both using varying doses of agonist or varying doses of amtolmetin guacyl (Table 5).
The results are expressed as mean±S.E.

## O=C(O)Cc1ccccc1Nc1c(Cl)cccc1Cl [Diclofenac sodium, diclofenac sodium]
Rat gastric mucosa
  further gastric findings (table footnotes): Each value is the mean of 6 rats. ^a)Diffuse haemorrhagic gastritis was also present
[1]
  Ratio to rat dosage (mg/kg) (ID50 mg/kg x5): 15.8 mg/kg
diuresis
  diuresis: clear decrease
[2]
  Duration: 180 min
  Latency: 20 min
  Max. time effect: 60 min
Gastric mucosa
  Macroscopic findings: 2 and 4 and 7
  Microscopic findings: 2* and 3* and 9*

## Cc1ccc(C(=O)c2ccc(CC(=O)O)n2C)cc1 [Tolmetin, tolmetin]
Rat gastric mucosa
  Gastrolesive index: 79.7
Gastric mucosa
  Macroscopic findings: 3 and 0 (2×)
  Microscopic findings: 2+ and 0+ and 1+

## CN1C(C(=O)Nc2ccccn2)=C(O)c2ccccc2S1(=O)=O [Piroxicam, piroxicam]
[1]
  Ratio to rat dosage (mg/kg) (ID50 mg/kg x5): 13.8 mg/kg
Adjuvant arthritis
  protection against bone loss: greatest protection against bone loss

## CN/C(=N/CCSCc1nc[nH]c1C)NC#N [Cimetidine, cimetidine, reference compound]
[3]
  % inhib.: 78.6%
[3]; mean±S.E.
  Δacid: 14.3 ± 7.2 nmol/min
